Data published in patent US20260241012A1, “1,8-NAPHTHYRIDIN-2-ONE HETEROBIFUNCTIONAL BCL6 DEGRADERS” (Treeline Biosciences, Inc., priority 2022, published 2026).

Molecular target: T1, N-terminal HiBiT tagged BCL6 (Homo sapiens, UniProt P41182)
T1 construct: expressed in transfected cells; host or cells: HT1080 (ATCC CCL-121), stably transduced with lentivirus pLV-UBC-N-HiBiT-BCL6-PGK-puro
Test: HiBiT based degradation assay
Type: cell-based
Details: HT1080 cells expressing N-terminal HiBiT tagged BCL6, 5 hours of incubation; for Ymin (5 hr): BCL6 degradation normalized with DMSO control; for DC50: four-parameter logistic model, read-out: EC50 (5 hr)
Outline: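 Degradation measured by luminescence from the Nano-Glo HiBiT lytic reagent (15 min, room temperature), normalized to DMSO controls and fitted to a four-parameter curve.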

Ymin (5 hr)	DC50 [nM]	Structure (SMILES)
+++ (30% ≤ Ymin < 50%)	100 to 1000	CNC(=O)COc1cc2cc(Nc3nc(N4CCN(CC5CCN(c6cccc7c(C8CCC(=O)NC8=O)nn(C)c67)CC5)[C@@H](C(F)(F)F)C4)ncc3Cl)cnc2n(C(C)C)c1=O (stereo partly drawn) [Compound 163a, 2-[[6-[[5-chloro-2-[(3R)-4-[[1-[3-(2,6-dioxo-3-piperidyl)-1-methyl-indazol-7-yl]-4-piperidyl]methyl]-3-(trifluoromethyl)piperazin-1-yl]pyrimidin-4-yl]amino]-1-isopropyl-2-oxo-1,8-naphthyridin-3-yl]oxy]-N-methyl-acetamide]
+++ (30% ≤ Ymin < 50%)	10 to 100	CNC(=O)COc1cc2cc(Nc3nc(N4CCN(CC5CCN(c6cccc7c(C8CCC(=O)NC8=O)nn(C)c67)CC5)C5(CC5)C4)ncc3Cl)cnc2n(C(C)C)c1=O (stereo not shown) [Compound 191, 2-[[6-[[5-chloro-2-[4-[[1-[3-(2,6-dioxo-3-piperidyl)-1-methyl-indazol-7-yl]-4-piperidyl]methyl]-4,7-diazaspiro[2.5]octan-7-yl]pyrimidin-4-yl]amino]-1-isopropyl-2-oxo-1,8-naphthyridin-3-yl]oxy]-N-methyl-acetamide]
++++ (Ymin < 30%)	10 to 100	CNC(=O)COc1cc2cc(Nc3nc(N4CCC([C@H](C)N5CCN(c6cccc7c(C8CCC(=O)NC8=O)nn(C)c67)CC5)CC4)ncc3Cl)cnc2n(C(C)C)c1=O (single isomer, unassigned) [Compound 193b]
+++ (30% ≤ Ymin < 50%)	10 to 100	CNC(=O)COc1cc2cc(Nc3nc(N4CC[C@@H](CNc5cccc6c(C7CCC(=O)NC7=O)nn(C)c56)C4)ncc3Cl)cnc2n(C)c1=O (stereo partly drawn) [Compound 122b, 2-((6-((5-chloro-2-((3S)-3-(((3-(2,6-dioxopiperidin-3-yl)-1-methyl-1H-indazol-7-yl)amino)methyl)pyrrolidin-1-yl)pyrimidin-4-yl)amino)-1-methyl-2-oxo-1,2-dihydro-1,8-naphthyridin-3-yl)oxy)-N-methylacetamide]
++++ (Ymin < 30%)	< 10	CNC(=O)COc1cc2cc(Nc3nc(N4CC5(CCC(CN6CCN(c7ccc8c(C9CCC(=O)NC9=O)nn(C)c8c7)CC6)CC5)C4)ncc3Cl)cnc2n(C(C)C)c1=O (stereo not shown) [Compound 205, 2-((6-((5-chloro-2-(7-((4-(3-(2,6-dioxopiperidin-3-yl)-1-methyl-1H-indazol-6-yl)piperazin-1-yl)methyl)-2-azaspiro[3.5]nonan-2-yl)pyrimidin-4-yl)amino)-1-isopropyl-2-oxo-1,2-dihydro-1,8-naphthyridin-3-yl)oxy)-N-methylacetamide]
+++ (30% ≤ Ymin < 50%)	10 to 100	CNC(=O)COc1cc2cc(Nc3nc(N4CCC([C@@H](C)N5CCN(c6cccc7c(C8CCC(=O)NC8=O)nn(C)c67)CC5)CC4)ncc3Cl)cnc2n(C(C)C)c1=O (single isomer, unassigned) [Compound 193a]
++ (50% ≤ Ymin < 70%)	< 10	CNC(=O)COc1cc2cc(Nc3nc(N4CCN(C[C@H]5CCN(c6ccc7c(C8CCC(=O)NC8=O)nn(C)c7c6)C5)[C@H](C)C4)ncc3Cl)cnc2n(C(C)C)c1=O (stereo partly drawn) [Compound 216c, 2-[[6-[[5-chloro-2-[(3R)-4-[[(3R)-1-[3-(2,6-dioxo-3-piperidyl)-1-methyl-indazol-6-yl]pyrrolidin-3-yl]methyl]-3-methyl-piperazin-1-yl]pyrimidin-4-yl]amino]-1-isopropyl-2-oxo-1,8-naphthyridin-3-yl]oxy]-N-methyl-acetamide]
++ (50% ≤ Ymin < 70%)	< 10	CNC(=O)COc1cc2cc(Nc3nc(N4C[C@H]5C[C@@H]4CN5CC4CCN(c5cccc6c(C7CCC(=O)NC7=O)nn(C)c56)CC4)ncc3Cl)cnc2n(C(C)C)c1=O (stereo partly drawn) [Compound 174a, 2-[[6-[[5-chloro-2-[(1R,4R)-5-[[1-[3-(2,6-dioxo-3-piperidyl)-1-methyl-indazol-7-yl]-4-piperidyl]methyl]-2,5-diazabicyclo[2.2.1]heptan-2-yl]pyrimidin-4-yl]amino]-1-isopropyl-2-oxo-1,8-naphthyridin-3-yl]oxy]-N-methyl-acetamide]
++++ (Ymin < 30%)	< 10	CNC(=O)COc1cc2cc(Nc3nc(N4CC5(CCC(Nc6cc7c(cc6F)c(C6CCC(=O)NC6=O)nn7C)CC5)C4)ncc3Cl)cnc2n(C(C)C)c1=O (stereo not shown) [Compound 184, 2-[[6-[[5-chloro-2-[7-[[3-(2,6-dioxo-3-piperidyl)-5-fluoro-1-methyl-indazol-6-yl]amino]-2-azaspiro[3.5]nonan-2-yl]pyrimidin-4-yl]amino]-1-isopropyl-2-oxo-1,8-naphthyridin-3-yl]oxy]-N-methyl-acetamide]
+++ (30% ≤ Ymin < 50%)	< 10	CNC(=O)COc1cc2cc(Nc3nc(N4CCN(c5cccc6c(C7CCC(=O)NC7=O)nn(C)c56)CC4)ncc3Cl)cnc2n(C(C)C)c1=O (stereo not shown) [Compound 166, 2-[[6-[[5-chloro-2-[4-[3-(2,6-dioxo-3-piperidyl)-1-methyl-indazol-7-yl]piperazin-1-yl]pyrimidin-4-yl]amino]-1-isopropyl-2-oxo-1,8-naphthyridin-3-yl]oxy]-N-methyl-acetamide]
+++ (30% ≤ Ymin < 50%)	< 10	CNC(=O)COc1cc2cc(Nc3nc(N4CCC([C@](C)(O)C5CCN(c6ccc7c(C8CCC(=O)NC8=O)nn(C)c7c6)CC5)CC4)ncc3Cl)cnc2n(C(C)C)c1=O (single isomer, unassigned) [Compound 201b]
++++ (Ymin < 30%)	10 to 100	CNC(=O)COc1cc2cc(Nc3nc(N4CC[C@H](CN5CCN(c6cccc7c(C8CCC(=O)NC8=O)nn(C)c67)CC5)[C@@H](C)C4)ncc3Cl)cnc2n(C(C)C)c1=O (stereo partly drawn) [Compound 177d, 2-((6-((5-chloro-2-((3R,4S)-4-((4-(3-(2,6-dioxopiperidin-3-yl)-1-methyl-1H-indazol-7-yl)piperazin-1-yl)methyl)-3-methylpiperidin-1-yl)pyrimidin-4-yl)amino)-1-isopropyl-2-oxo-1,2-dihydro-1,8-naphthyridin-3-yl)oxy)-N-methylacetamide]
+++ (30% ≤ Ymin < 50%)	< 10	CNC(=O)COc1cc2cc(Nc3nc(N4CCC(CN5CCN(c6ccc7c(C8CCC(=O)NC8=O)nn(C)c7c6)CC5(C)C)CC4)ncc3Cl)cnc2n(C(C)C)c1=O (stereo not shown) [Compound 196, 2-((6-((5-chloro-2-(4-((4-(3-(2,6-dioxopiperidin-3-yl)-1-methyl-1H-indazol-6-yl)-2,2-dimethylpiperazin-1-yl)methyl)piperidin-1-yl)pyrimidin-4-yl)amino)-1-isopropyl-2-oxo-1,2-dihydro-1,8-naphthyridin-3-yl)oxy)-N-methylacetamide]
++++ (Ymin < 30%)	< 10	CNC(=O)COc1cc2cc(Nc3nc(N4CCC5(CCC(Nc6ccc7c(C8CCC(=O)NC8=O)nn(C)c7c6)CC5)CC4)ncc3Cl)cnc2n(C(C)C)c1=O (stereo not shown) [Compound 199, 2-[[6-[[5-chloro-2-[9-[[3-(2,6-dioxo-3-piperidyl)-1-methyl-indazol-6-yl]amino]-3-azaspiro[5.5]undecan-3-yl]pyrimidin-4-yl]amino]-1-isopropyl-2-oxo-1,8-naphthyridin-3-yl]oxy]-N-methyl-acetamide]
